The values that follow come from ChEMBL document CHEMBL1268893, “A practical deuterium-free NMR method for the rapid determination of 1-octanol/water partition coefficients of pharmaceutical agents” (Bioorg Med Chem Lett, 2010).

Data set [1] in a line: Octanol-water partition coefficient, log P of the compound by deuterium-free NMR method. The format is physicochemical.
Data set [2] can be described thus: Octanol-water partition coefficient, log P of the compound at pH 7.0.
Data set [3] is described as follows: Octanol-water partition coefficient, log P of the compound. The data set is classed as physicochemical.
The nature of data set [4]: Octanol-water partition coefficient, log P of the compound after partitioning between 0.1 M NaOH and 1-octanol by deuterium-free NMR method. The following applies: 1-octanol/0.1 M NaOH. The data set is classed as physicochemical.

Regarding `O=C1CN(/N=C/c2ccc([N+](=O)[O-])o2)C(=O)N1` [NITROFURANTOIN], the logP in data set [1] was -0.36. The logD in data set [2] is -0.68. In the case of `CCN(CC)CCOC(=O)c1ccc(N)cc1` [PROCAINE], the logP in data set [3] was 0.88; in data set [4] it was 0.9.

For `CC[C@H]1OC(=O)[C@H](C)[C@@H](O[C@H]2C[C@@](C)(OC)[C@@H](O)[C@H](C)O2)[C@H](C)[C@@H](O[C@@H]2O[C@H](C)C[C@H](N(C)C)[C@H]2O)[C@](C)(O)C[C@@H](C)C(=O)[C@H](C)[C@@H](O)[C@]1(C)O` [ERYTHROMYCIN], the logP is 2.54 in data set [3] and 2.01 in data set [1]. With `CC(=O)Oc1ccccc1C(=O)O` [ASPIRIN], the logP in data set [1] came out at 1.15. Turning to `CC(=O)Nc1ccc(O)cc1` [ACETAMINOPHEN], the logP in data set [3] came out at 0.33; in data set [1], 0.29.

Compound `CCOc1ccc(NC(C)=O)cc1` [PHENACETIN] came in with a logP in data set [1] of 1.45.
